The results in this text go back to US11926613B2, “Kinase inhibitors for the treatment of central and peripheral nervous system disorders” (UNIVERSITY OF MIAMI, priority 2017, dated 2024).

pEC50: −log10 of the molar value. Entries after “also recorded” stand apart in the source; their conditions may differ. Like-named read-outs stand apart in the source and are kept apart here.

One test has as its system Primary Neurons. In words: HCS neurite outgrowth assay (High Content Screening with Primary Neurons). Type of test: cell-based.
The subject of test [1] is corticospinal tract (CST) axons. Kind of test: Unilateral pyramidotomy model, in vivo axon growth (CST axon sprouting). To be noted: mice, cortical injection, 2 mM final concentration, 5 weeks after unilateral pyramidotomy, N=2. The source says: B) Graph represents averages of sprouting axon index across two animals treated with indicated compounds. Error bars indicate range of data points. N=2 animals (mice).
To assess the role of the compounds described herein in axon growth in vivo, the unilateral pyramidotomy model was employed, in which the pyramid in the ventral brainstem was severed unilaterally, rostral to the decussation of corticospinal tract (CST) axons. The animals then received bilateral cortical injections of a compound described herein (or DMSO) mixed 1:1 with AAV8-UbC-GFP or AAV8-UbC-TdTomato (5×10^13 GC/mL) for a final concentration of 2 mM (2 animals (mice) for each condition). […] Axon growth in the cervical spinal cord was assessed after 5 weeks. Cervical sections of the spinal cord were stained with antibodies against PKCγ (to assess completeness of lesion), and GFP (to amplify the signal from the virus). For analyses, GFP+ axons sprouting into the denervated gray matter were counted at 0, 500, 1000 μm lateral to the central canal, and normalized to the number of GFP+ fibers at the level of the brainstem (sprouting axon index).

Test [2] deals with neurons from hippocampi of E18 rat embryos. In words: Neurite growth length (% NTL) in cultured E18 rat hippocampal neurons, 9-point dose response, 48 hours. Type of test: cell-based. Put shortly:
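% NTL comes from automated neurite tracing of βIII-tubulin-stained cells, with 200–300 or more neurons per condition. Compounds were given in a 9-point dilution series (20 μM to 0.078125 μM) for 48 h. Cells were trypsin-dissociated E18 rat hippocampal neurons plated at 1500/well on poly-D-lysine.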

The next test deals with primary CNS neurons. Kind of test: Neurite outgrowth in primary CNS neurons (FIG. 1, FIG. 2). The conditions noted are these: FIG. 2, combination of both inhibitors. Type of test: cell-based.

A word on the pEC50: it is the EC50 on a negative log10 scale, so that one unit is a factor of ten. A lower pEC50 goes with a high EC50. In the test on Primary Neurons, `COc1ccc(O)c(C(=O)c2ccc(C(=O)N[C@@H]3CNC[C@H]3NC(=O)c3ccncc3)cc2)c1F` [Example A16, N-[(3R,4R)-4-[4-(2-fluoro-6-hydroxy-3-methoxybenzoyl)benzamido]pyrrolidin-3-yl]pyridine-4-carboxamide] had a negative logarithm of the EC50 (pEC50) of 5.26. For the same compound, the “CST axon sprouting (sprouting axon index)” value in test [1] is recorded as “nearly a two-fold increase in sprouting”; in test [1] (listed as A-16) it was “promotes CST axon sprouting in the spinal cord”. The “neurite growth length (% NTL)” value in test [2] (156 nM) is 117.55 % NTL; in test [2] (312 nM) it was 125.17 % NTL; in test [2] (625 nM) it was 144.99 % NTL; in test [2] (1.25 μM), 167.31 % NTL; in test [2] (2.5 μM) it was 228.24 % NTL; in test [2] (5 μM) it was 403.74 % NTL. For the same compound, the “neurite growth length (% NTL)” value in test [2] (10 μM) was found to be 573.73 % NTL; in test [2] (20 μM), 660.88 % NTL. Besides, the activity at 0.078 µM in test [2] (Rattus norvegicus, Neuron, 48 h, 78 nM) stood at 117%.
In the case of `COc1ccc(O)c(C(=O)c2ccc(C(=O)O[C@@H]3CCCNC[C@H]3NC(=O)c3ccncc3)cc2)c1F` [Example A92, (3R,4R)-3-(isonicotinamido)azepan-4-yl 4-(2-fluoro-6-hydroxy-3-methoxybenzoyl)benzoate, reference compound], the pEC50 in the test on Primary Neurons (Primary neuron) was 6.15. The “CST axon sprouting (sprouting axon index)” value in test [1] is “promotes CST axon sprouting in the spinal cord; also recorded: nearly a two-fold increase in sprouting”.
`Cc1cncc2cccc(S(=O)(=O)N3CCCNC[C@@H]3C)c12` [Example H-1152]: the “neurite outgrowth, ROCK inhibitor and S6K inhibitor combined” value in the test with primary CNS neurons was “synergistically promotes neurite outgrowth”.
`CCc1cncnc1N1CCN(Cc2nc3ccc(C(F)(F)F)cc3[nH]2)CC1` [PF-4708761]: the “neurite outgrowth, ROCK inhibitor and S6K inhibitor combined” value with primary CNS neurons is “synergistically promotes neurite outgrowth”.
